From patent publication US9642366B2, “Active substance combinations that have nematicidal, insecticidal, and fungicidal properties and are based on trifluorobutenyl compounds” (priority 2003, dated 2017)
Where “and” joins values, the source holds several entries; their conditions need not be identical. Equal values may be shown once.

Legend:
[1] = test system: Phytophthora cactorum; test: Mycelium growth test with Phytophthora cactorum; assay type: cell-based; conditions: single active compound
[2] = test system: Rhizoctonia solani; test: Mycelium growth test with Rhizoctonia solani; assay type: cell-based; conditions: single active compound
[3] = test system: Fusarium nivale; test: Mycelium growth test with Fusarium nivale; assay type: cell-based; conditions: 1 ppm in the nutrient medium, single active compound
[4] = test system: Meloidogyne incognita; test: Meloidogyne test (nematicidal action, gall formation on lettuce roots); assay type: in vivo; conditions: single active compound
Source text: (§1) The expected action for a given combination of two active compounds can be calculated as follows (cf. Colby, S. R., “Calculating Synergistic and Antagonistic Responses of Herbicide Combinations”, Weeds 15 (1967), 20-22):
(§2) If • X is the efficacy or kill rate, expressed as a percentage of the untreated control, when employing active compound A in a concentration of m ppm, • Y is the efficacy or kill rate, expressed as a percentage of the untreated control, when employing active compound B in a concentration of […] and • E is the efficacy or kill rate, expressed as a percentage of the untreated control, when employing active compounds A and B in a concentration of m and n ppm,
(§3) If the actual fungicidal or nematicidal, insecticidal and/or acaricidal action exceeds the calculated value, the action of the combination is superadditive, i.e. a synergistic effect is present. In this case, the actually observed efficacy or kill rate must exceed the value calculated using the above formula for the expected efficacy (E).
Solvent: 7 parts by weight of dimethylformamide
Emulsifier: 2 parts by weight of alkylaryl polyglycol ether
To produce a suitable preparation of active compound, 1 part by weight of active compound is mixed with the stated amounts of solvent and emulsifier, and the concentrate is diluted with water to the desired concentration.
Vessels are filled with sand, solution of active compound, Meloidogyne incognita egg/larvae suspension and lettuce seeds. The lettuce seeds germinate and plants develop. On the roots, galls are formed.
After the desired period of time, the nematicidal action is determined in % by the formation of galls. 100% means that no galls have been found; 0% means that the number of galls on the treated plants corresponds to that of the untreated control. The determined kill rates are inserted into Colby's formula.

[5] = test system: Plutella xylostella, sensitive strain; test: Plutella test, sensitive strain (insecticidal action, dipped cabbage leaves); assay type: in vivo; conditions: 100 ppm, single active compound
Source text: as §1, §2, §3
Solvent: 7 parts by weight of dimethylformamide […]
Cabbage leaves (Brassica oleracea) are treated by being dipped into the preparation of active compound of the desired concentration and are populated with caterpillars of the diamondback moth (Plutella xylostella, sensitive strain) while the leaves are still moist. After the desired period of time, the kill in % is determined. […]

[6] = test system: Phythium ultimum; test: Mycelium growth test with Phythium ultimum; assay type: cell-based; conditions: single active compound

Question: How did the “Efficacy [%]” value ([1]; 50 ppm in the nutrient medium) turn out when `O=S(=O)(CCC(F)=C(F)F)c1ncc(Cl)s1` [(IC)] was run?
Answer: 7%

Question: And the “Efficacy [%]” value ([1]; 100 ppm in the nutrient medium)?
Answer: 18% and 23%

Question: And the “Efficacy [%]” value ([2]; 1 ppm in the nutrient medium)?
Answer: 0%

Question: And the “Efficacy [%]” value ([2]; 10 ppm in the nutrient medium)?
Answer: 49%

Question: And the “Efficacy [%]” value [3]?
Answer: 15%

Question: And the “Kill rate [%] after 14 days” value ([4]; 0.8 ppm)?
Answer: 50%

Question: What about the “Kill rate [%] after 3 days” value [5] of the same compound?
Answer: 0%

Question: For `N#Cc1c[nH]cc1-c1cccc2c1OC(F)(F)O2` [fludioxonil], which “Kill rate [%] after 14 days” value ([4]; 20 ppm) is on record?
Answer: 0%

Question: How did the “Efficacy [%]” value ([1]; 5 ppm in the nutrient medium) turn out when `CO/N=C(/C1=NOCCO1)c1ccccc1Oc1ncnc(Oc2ccccc2Cl)c1F` [fluoxastrobin] was run?
Answer: 28%

Question: And the “Efficacy [%]” value ([2]; 1 ppm in the nutrient medium)?
Answer: 39%

Question: And the “Efficacy [%]” value ([6]; 10 ppm in the nutrient medium)?
Answer: 74%

Question: Which “Efficacy [%]” value ([6]; 200 ppm in the nutrient medium) does the source give for `CC(C)NC(=O)N1CC(=O)N(c2cc(Cl)cc(Cl)c2)C1=O` [iprodione] here?
Answer: 9%

Question: `O=C(Nc1ccccc1)N(Cc1ccc(Cl)cc1)C1CCCC1` [pencycuron] was tested. Which “Efficacy [%]” value ([1]; 200 ppm in the nutrient medium) did it give?
Answer: 0%

Question: Which “Efficacy [%]” value ([1]; 50 ppm in the nutrient medium) does the source give for `CCCN(CCOc1c(Cl)cc(Cl)cc1Cl)C(=O)n1ccnc1` [prochloraz] here?
Answer: 30%

Question: `OC(Cc1ccccc1Cl)(Cn1nc[nH]c1=S)C1(Cl)CC1` (centres unmarked) [prothioconazole] was tested. Which “Kill rate [%] after 14 days” value ([4]; 20 ppm) did it give?
Answer: 50%

Question: With `CC(C)(C)C(O)(CCc1ccc(Cl)cc1)Cn1cncn1` (centres unmarked) [tebuconazole] as the compound, how does the “Efficacy [%]” value ([1]; 100 ppm in the nutrient medium) read?
Answer: 12%

Question: What about the “Efficacy [%]” value ([6]; 100 ppm in the nutrient medium) of the same compound?
Answer: 72%

Question: What does the source list for `CO/N=C(\C(=O)OC)c1ccccc1CO/N=C(\C)c1cccc(C(F)(F)F)c1` [trifloxystrobin]?
Answer: Efficacy [%] ([1]; 10 ppm in the nutrient medium): 29%; Efficacy [%] ([2]; 1 ppm in the nutrient medium): 39%; Kill rate [%] after 14 days ([4]; 20 ppm): 0%; Kill rate [%] after 3 days [5]: 15%

Question: How did the “Efficacy [%]” value ([1]; 10 ppm in the nutrient medium) turn out when tolylfluanid was run?
Answer: 65%

Question: What about the “Efficacy [%]” value ([6]; 10 ppm in the nutrient medium) of the same compound?
Answer: 82%
